From US8993542B2, “Methods of treating viral infections” (priority 2008, dated 2015)

Tested on: HIV-1IIIB
Assay: Two-drug combination antiviral assay in CEM cells (CPE), MacSynergy II
Format: cell-based
Conditions: for Antagonism Volume, Result 1 / Antagonism Volume, Result 2 / Antagonism Volume, Result 3 / Mean Antagonism Volume (n = 3) / Mean Synergy Volume (n = 3) / Synergy Volume, Result 1 / Synergy Volume, Result 2 / Synergy Volume, Result 3: in combination with CMX157, CEM-SS cells, 95% confidence; for Interpretation of Antiviral Results (MacSynergy): two-drug combination (with CMX157; control d4T/RBV), CEM-SS cells

Molecule | Antagonism Volume, Result 1 | Antagonism Volume, Result 2 | Antagonism Volume, Result 3 | Mean Antagonism Volume (n = 3) | Mean Synergy Volume (n = 3) | Synergy Volume, Result 1 | Synergy Volume, Result 2 | Synergy Volume, Result 3 | Interpretation of Antiviral Results (MacSynergy)
CC(C)c1nc(CN(C)C(=O)N[C@H](C(=O)N[C@@H](Cc2ccccc2)C[C@H](O)[C@H](Cc2ccccc2)NC(=O)OCc2cncs2)C(C)C)cs1 [Ritonavir (RTV), ritonavir] | 0 nM^2 %, μM^2 % or nMμM % | 0 nM^2 %, μM^2 % or nMμM % | −2.61 nM^2 %, μM^2 % or nMμM % | 0 nM^2 %, μM^2 % or nMμM % | 66.4 nM^2 %, μM^2 % or nMμM % | 47.5 nM^2 %, μM^2 % or nMμM % | 38.0 nM^2 %, μM^2 % or nMμM % | 116 nM^2 %, μM^2 % or nMμM % | slightly synergistic
CC(C)(C)NC(=O)[C@@H]1C[C@@H]2CCCC[C@@H]2CN1C[C@@H](O)[C@H](Cc1ccccc1)NC(=O)[C@H](CC(N)=O)NC(=O)c1ccc2ccccc2n1 [Saquinavir (SQV), saquinavir] | −2.54 nM^2 %, μM^2 % or nMμM % | −0.81 nM^2 %, μM^2 % or nMμM % | 0 nM^2 %, μM^2 % or nMμM % | −1.12 nM^2 %, μM^2 % or nMμM % | 45.2 nM^2 %, μM^2 % or nMμM % | 123 nM^2 %, μM^2 % or nMμM % | 8.35 nM^2 %, μM^2 % or nMμM % | 3.93 nM^2 %, μM^2 % or nMμM % | –
CCC[C@@]1(CCc2ccccc2)CC(O)=C([C@H](CC)c2cccc(NS(=O)(=O)c3ccc(C(F)(F)F)cn3)c2)C(=O)O1 [Tipranavir (TPV), tipranavir] | 0 nM^2 %, μM^2 % or nMμM % | −8.60 nM^2 %, μM^2 % or nMμM % | 0 nM^2 %, μM^2 % or nMμM % | −2.87 nM^2 %, μM^2 % or nMμM % | 52.2 nM^2 %, μM^2 % or nMμM % | 110 nM^2 %, μM^2 % or nMμM % | 29.4 nM^2 %, μM^2 % or nMμM % | 16.8 nM^2 %, μM^2 % or nMμM % | –
Nc1ccn([C@H]2CC[C@@H](CO)O2)c(=O)n1 [Zalcitabine (ddC), 2′,3′-dideoxycytidine] | 0 nM^2 %, μM^2 % or nMμM % | 0 nM^2 %, μM^2 % or nMμM % | −15.9 nM^2 %, μM^2 % or nMμM % | −5.29 nM^2 %, μM^2 % or nMμM % | 122 nM^2 %, μM^2 % or nMμM % | 154 nM^2 %, μM^2 % or nMμM % | 80.0 nM^2 %, μM^2 % or nMμM % | 131 nM^2 %, μM^2 % or nMμM % | highly synergistic
enfuvirtide | 0/0 nM^2 %, μM^2 % or nMμM % | 0 nM^2 %, μM^2 % or nMμM % | 0/0 nM^2 %, μM^2 % or nMμM % | 0 nM^2 %, μM^2 % or nMμM % | 1.02 nM^2 %, μM^2 % or nMμM % | 0/0 nM^2 %, μM^2 % or nMμM % | 3.05 nM^2 %, μM^2 % or nMμM % | 0/0 nM^2 %, μM^2 % or nMμM % | –
